Common to all, as to experiment: combination cScore with adagrasib (Bliss gap around IC50) (%PoC); higher = stronger additive effect
The test system of test [1] is NCI-H358. Put shortly: (§1)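 NCI-H2122, NCI-H358 and SW837 cells were plated in 384-well plates at 500 or 800 cells per well, treated with concentration matrices after 24 h, and grown for 72 h (SW837 for 144 h). Luminescence from CellTiter-Glo was expressed as percent of control relative to vehicle wells and fitted with four-parameter curves. The score is the mean Bliss-independence gap, expected minus measured viability, across a field around both monotherapy IC50 values, or across the top concentrations where no IC50 was reached.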

Test [2] deals with SW837. Put shortly: as §1
The test system of test [3] is NCI-H2122. Put shortly: as §1

Each structure is given as a SMILES string.

For `C[C@H](Nc1ncnc2nc[nH]c12)c1cc2cccc(Cl)c2c(=O)n1-c1ccccc1` [Duvelisib] + C=C(F)C(=O)N1CCN(c2nc(OC[C@@H]3CCCN3C)nc3c2CCN(c2cccc4cccc(Cl)c24)C3)C[C@@H]1CC#N [adagrasib], the “combination cScore with adagrasib” value in test [1] came to 4.67; in test [2] it was 12.8; in test [3], 15.9.

For the compound `C=CC(=O)Nc1cc(Nc2nccc(-c3cn(C)c4ccccc34)n2)c(OC)cc1N(C)CCN(C)C` [Osimertinib] + C=C(F)C(=O)N1CCN(c2nc(OC[C@@H]3CCCN3C)nc3c2CCN(c2cccc4cccc(Cl)c24)C3)C[C@@H]1CC#N [adagrasib], the “combination cScore with adagrasib” value in test [1] stood at 8.16; in test [2], 26.1; in test [3], 10.

Consider `C[C@@H]1OCC2(CCN(c3cnc(Sc4ccnc(N)c4Cl)c(N)n3)CC2)[C@@H]1N` [TNO155] + C=C(F)C(=O)N1CCN(c2nc(OC[C@@H]3CCCN3C)nc3c2CCN(c2cccc4cccc(Cl)c24)C3)C[C@@H]1CC#N [adagrasib], for which the “combination cScore with adagrasib” value amounted to 9.32 in test [1], 31 in test [2] and 49 in test [3].

Take `C[C@@H]1CN(CC(=O)Nc2ccc3c(c2)Cc2cccc(-c4cc(=O)cc(N5CCOCC5)o4)c2S3)C[C@H](C)O1` + C=C(F)C(=O)N1CCN(c2nc(OC[C@@H]3CCCN3C)nc3c2CCN(c2cccc4cccc(Cl)c24)C3)C[C@@H]1CC#N [adagrasib]: the “combination cScore with adagrasib” value came to 6.62 in test [1], 3.63 in test [2] and 18.9 in test [3].

Turning to `O=C(c1cc(Cc2n[nH]c(=O)c3ccccc23)ccc1F)N1CCN(C(=O)C2CC2)CC1` [Olaparib] + C=C(F)C(=O)N1CCN(c2nc(OC[C@@H]3CCCN3C)nc3c2CCN(c2cccc4cccc(Cl)c24)C3)C[C@@H]1CC#N [adagrasib], the “combination cScore with adagrasib” value in test [1] came to 1.38; in test [2], 2.95; in test [3], 5.71.

Take `CC1(N)CCN(c2cnc(-c3cccc(Cl)c3Cl)c(N)n2)CC1` [SHP099] + C=C(F)C(=O)N1CCN(c2nc(OC[C@@H]3CCCN3C)nc3c2CCN(c2cccc4cccc(Cl)c24)C3)C[C@@H]1CC#N [adagrasib]: the “combination cScore with adagrasib” value in test [1] amounted to 1.39; in test [2] it was 14.3; in test [3], 19.4.

As for `COC(=O)[C@]12CCC(C)(C)C[C@H]1[C@H]1C(=O)C=C3[C@@]4(C)C=C(C#N)C(=O)C(C)(C)[C@@H]4CC[C@@]3(C)[C@]1(C)CC2` [Bardoxolone methyl] + C=C(F)C(=O)N1CCN(c2nc(OC[C@@H]3CCCN3C)nc3c2CCN(c2cccc4cccc(Cl)c24)C3)C[C@@H]1CC#N [adagrasib], the “combination cScore with adagrasib” value was -4.25 in test [1], 0.43 in test [2] and 5.12 in test [3].

As to `COc1cc2nc(C)nc(N[C@H](C)c3cc(N)cc(C(F)(F)F)c3)c2cc1O[C@H]1CCOC1` [BI-3406 (SOSi)] + C=C(F)C(=O)N1CCN(c2nc(OC[C@@H]3CCCN3C)nc3c2CCN(c2cccc4cccc(Cl)c24)C3)C[C@@H]1CC#N [adagrasib], the “combination cScore with adagrasib” value in test [1] worked out at 10.7; in test [2] it was 19.4; in test [3], 28.

`O=C(C1CC1)N1CC[C@@H](Cn2c(-c3ccc(-c4ccc5occc5c4)cc3)nc3cnccc32)C1` + C=C(F)C(=O)N1CCN(c2nc(OC[C@@H]3CCCN3C)nc3c2CCN(c2cccc4cccc(Cl)c24)C3)C[C@@H]1CC#N [adagrasib]: the entries for the “combination cScore with adagrasib” value in test [1], in test [2] and in test [3] were 7.72, 7.68 and 7.98, respectively.

With `CCNC(=O)C[C@@H]1N=C(c2ccc(Cl)cc2)c2cc(OC)ccc2-n2c(C)nnc21` [iBET-762] + C=C(F)C(=O)N1CCN(c2nc(OC[C@@H]3CCCN3C)nc3c2CCN(c2cccc4cccc(Cl)c24)C3)C[C@@H]1CC#N [adagrasib], the entries for the “combination cScore with adagrasib” value in test [1], in test [2] and in test [3] were 5.14, 0.28 and 22.7, respectively.

Regarding `O=C(/C=C/N1C[C@H]2C[C@@H]1CN2c1ccccn1)c1ccccc1O` [PFI-3] + C=C(F)C(=O)N1CCN(c2nc(OC[C@@H]3CCCN3C)nc3c2CCN(c2cccc4cccc(Cl)c24)C3)C[C@@H]1CC#N [adagrasib], the “combination cScore with adagrasib” value was -3.19 in test [1], -2.21 in test [2] and 15.8 in test [3].

For the compound `COc1cc(N2CCC(N3CCN(C)CC3)CC2)ccc1Nc1ncc(Cl)c(Nc2ccccc2S(=O)(=O)C(C)C)n1` [NVP-TAE684] + C=C(F)C(=O)N1CCN(c2nc(OC[C@@H]3CCCN3C)nc3c2CCN(c2cccc4cccc(Cl)c24)C3)C[C@@H]1CC#N [adagrasib], the “combination cScore with adagrasib” value was 3.66 in test [1], 23.6 in test [2] and 12.8 in test [3].

For the compound `O=C(c1c(F)ccc(NS(=O)(=O)N2CC[C@@H](F)C2)c1F)c1c[nH]c2ncc(-c3cnc(C4CC4)nc3)cc12` [PLX8394] + C=C(F)C(=O)N1CCN(c2nc(OC[C@@H]3CCCN3C)nc3c2CCN(c2cccc4cccc(Cl)c24)C3)C[C@@H]1CC#N [adagrasib], the “combination cScore with adagrasib” value in test [1] was 0.57; in test [2], -2.23; in test [3] it was 17.5.

`CNS(=O)(=O)Nc1nccc(Cc2c(C)c3ccc(Oc4ncccn4)cc3oc2=O)c1F` + C=C(F)C(=O)N1CCN(c2nc(OC[C@@H]3CCCN3C)nc3c2CCN(c2cccc4cccc(Cl)c24)C3)C[C@@H]1CC#N [adagrasib]: the “combination cScore with adagrasib” value was found to be 3.4 in test [1], 3.07 in test [2] and 9.73 in test [3].

For the compound `NC1(c2ccc(-c3nc4ccn5c(=O)[nH]nc5c4cc3-c3ccccc3)cc2)CCC1` [MK-2206] + C=C(F)C(=O)N1CCN(c2nc(OC[C@@H]3CCCN3C)nc3c2CCN(c2cccc4cccc(Cl)c24)C3)C[C@@H]1CC#N [adagrasib], the “combination cScore with adagrasib” value in test [1] was determined as 6.39; in test [2], 12.2; in test [3], 8.

For the compound `C=CC(=O)N1CCC[C@@H](n2nc(-c3ccc(Oc4ccccc4)cc3)c3c(N)ncnc32)C1` [Ibrutinib] + C=C(F)C(=O)N1CCN(c2nc(OC[C@@H]3CCCN3C)nc3c2CCN(c2cccc4cccc(Cl)c24)C3)C[C@@H]1CC#N [adagrasib], the “combination cScore with adagrasib” value in test [1] is 9.97; in test [2], 2.16; in test [3] it was 26.9.

With `COc1cc2/c(=N/c3ccc(Br)cc3F)nc[nH]c2cc1OCC1CCN(C)CC1` [Vandetanib] + C=C(F)C(=O)N1CCN(c2nc(OC[C@@H]3CCCN3C)nc3c2CCN(c2cccc4cccc(Cl)c24)C3)C[C@@H]1CC#N [adagrasib], the “combination cScore with adagrasib” value in test [1] amounted to 7.95; in test [2], 27.6; in test [3], 21.3.

As to `CCS(=O)(=O)Nc1ccc2c(c1)/C(=C(/Nc1ccc(CN3CCCCC3)cc1)c1ccccc1)C(=O)N2` [Hesperadin] + C=C(F)C(=O)N1CCN(c2nc(OC[C@@H]3CCCN3C)nc3c2CCN(c2cccc4cccc(Cl)c24)C3)C[C@@H]1CC#N [adagrasib], the figures for the “combination cScore with adagrasib” value in test [1], in test [2] and in test [3] were 0.47, 0.27 and 8.14, respectively.

Consider `COc1cc2ncnc(Nc3ccc(F)c(Cl)c3)c2cc1OCCCN1CCOCC1` [Gefitinib] + C=C(F)C(=O)N1CCN(c2nc(OC[C@@H]3CCCN3C)nc3c2CCN(c2cccc4cccc(Cl)c24)C3)C[C@@H]1CC#N [adagrasib], for which the figures for the “combination cScore with adagrasib” value in test [1], in test [2] and in test [3] were 12.5, 23.8 and 15.8, respectively.

Take `CC(C)n1nc(-c2ccc3oc(N)nc3c2)c2c(N)ncnc21` [MLN-0128] + C=C(F)C(=O)N1CCN(c2nc(OC[C@@H]3CCCN3C)nc3c2CCN(c2cccc4cccc(Cl)c24)C3)C[C@@H]1CC#N [adagrasib]: the “combination cScore with adagrasib” value in test [1] turned out to be 0.5; in test [2], 9.3; in test [3], 7.57.

Consider `CC[C@H](Nc1ncnc2[nH]cnc12)c1nc2cccc(F)c2c(=O)n1-c1ccccc1` [Cal-101] + C=C(F)C(=O)N1CCN(c2nc(OC[C@@H]3CCCN3C)nc3c2CCN(c2cccc4cccc(Cl)c24)C3)C[C@@H]1CC#N [adagrasib], for which the “combination cScore with adagrasib” value in test [1] came out at 5.08; in test [2], 1.53; in test [3] it was 14.1.

As for `Cc1nc(-c2cn3c(n2)-c2ccc(-c4cnn(C(C)(C)C(N)=O)c4)cc2OCC3)n(C(C)C)n1` [Taselisib] + C=C(F)C(=O)N1CCN(c2nc(OC[C@@H]3CCCN3C)nc3c2CCN(c2cccc4cccc(Cl)c24)C3)C[C@@H]1CC#N [adagrasib], the entries for the “combination cScore with adagrasib” value in test [1], in test [2] and in test [3] were 7.08, 26.6 and 18.1, respectively.

`Cc1nc(Nc2ncc(C(=O)Nc3c(C)cccc3Cl)s2)cc(N2CCN(CCO)CC2)n1` [Dasatinib] + C=C(F)C(=O)N1CCN(c2nc(OC[C@@H]3CCCN3C)nc3c2CCN(c2cccc4cccc(Cl)c24)C3)C[C@@H]1CC#N [adagrasib]: the “combination cScore with adagrasib” value in test [1] was 8.94; in test [2], 14.7; in test [3], 42.

The values above are taken from the supplement of paper PMC11424490.
